Laboratory results taken from paper PMC11571207, “Stereorandomized Oncocins with Preserved Ribosome Binding and Antibacterial Activity” (Journal of Medicinal Chemistry, 2024).
In brackets after ≈: the same amount, converted by molar mass. Like-named read-outs stand apart in the source and are kept apart here. Non-standard residues stand in square brackets, D forms with d. Residues, ends and D or L forms follow the SMILES beside them.

How the values were obtained:
[1] = tested on: P. aeruginosa PA14 4.18 (pmrB); details: for MIC P. aeruginosa PA14 4.18: supplement CSV
[2] = tested on: P. aeruginosa PA14 4.13 (phoQ); details: for MIC P. aeruginosa PA14 4.13: supplement CSV
[3] = tested on: K. pneumoniae OXA-48; assay: microbe, parasite or virus in culture; details: for MIC K. pneumoniae OXA-48: supplement CSV
Experimental: (§1) Minimum inhibitory concentration assay
(§2) Antimicrobial activity was assayed against P. aeruginosa PAO1, K. pneumoniae NCTC418, E. coli W3110, A. baumannii ATCC 19606, methicillin-resistant S. aureus COL (MRSA), and for selected peptides on P. aeruginosa PA14 and the polymyxin-B-resistant derivative PA14 2P4, as well as the clinical isolates ZEM-1A and ZEM9A, K. pneumoniae OXA-48, S. aureus Newman, Enterobacter cloacae and Burkholderia cenocepacia. The minimal inhibitory concentration (MIC) was determined by using broth microdilution method. A colo ny of bacteria was picked and grown in Luria-Bertani (LB) medium overnight at 37°C. For E. coli BW25113 sbmA::kan the medium was supplemented with 25 mg/L of kanamycin. The next day, the culture was then regrown in LB medium to log phase (OD600 = 0.6 to 0.8), which lasted approximately 4 h, and diluted to an OD600 of 0.022 in the desired medium. Stock solutions of 1 mg/mL of the samples were prepared in sterilized milliQ water and diluted to the beginning concentration of 64 μg/mL in 300 μL Mueller Hinton (MH)-medium. The diluted samples were added to first well of 96-well microtiter plate (TPP, untreated, Faust Laborbedarf, AG, Schaffhausen) and diluted serially by ½. Finally, 4 μL of the bacterial suspension was inoculated into the sample solutions (150 μL/well) with a final inoculation of about 5∙10^5 CFU/mL. The plates were then incubated at 37°C for 15-18h. For each assay, sterility (broth only) and growth control (broth with bacterial inoculum, without antibiotics) were checked with two columns in the plate. The next day, 15 μL of 3-(4,5-dimethylthiazol-2-yl)-2,5-diphenyltetrazolium bromide (MTT) was added to each well of the plate, such a way that MIC was defined as the lowest concentration of the peptide that inhibited visible growth of the tested

[4] = tested on: P. aeruginosa PA14 2P4 (pmrB); assay: microbe, parasite or virus in culture; details: for MIC P. aeruginosa PA14 2P4: supplement CSV
Experimental: as §1, §2

[5] = tested on: E. cloacae; assay: microbe, parasite or virus in culture; details: for MIC E. cloacae: supplement CSV
Experimental: as §1, §2

[6] = tested on: P. aeruginosa PA14; assay: microbe, parasite or virus in culture; details: for MIC P. aeruginosa PA14: supplement CSV
Experimental: as §1, §2

[7] = tested on: P. aeruginosa ZEM9A; assay: microbe, parasite or virus in culture; details: for MIC P. aeruginosa ZEM9A: supplement CSV
Experimental: as §1, §2

[8] = tested on: P. aeruginosa ZEM-1A; assay: microbe, parasite or virus in culture
Experimental: as §1, §2

[9] = tested on: human red blood cells; assay: Hemolysis assay, minimum hemolytic concentration
[10] = tested on: K. pneumoniae NCTC 418; assay: microbe, parasite or virus in culture; details: for MIC K. pneumoniae NCTC418: supplement CSV
Procedure, shortened: (§3)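 Read-out was visible growth after MTT addition, the MIC being the lowest inhibitory peptide concentration. Bacteria grown to log phase in LB were exposed in MH medium to peptide from 64 μg/mL in twofold dilutions for 15-18h at 37°C.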

[11] = tested on: E. coli W3110; assay: microbe, parasite or virus in culture; details: for MIC E. coli W3110: supplement CSV
Procedure, shortened: as §3

[12] = tested on: A. baumannii ATCC19606; assay: microbe, parasite or virus in culture; details: for MIC A. baumannii ATCC19606: supplement CSV
Procedure, shortened: as §3

[13] = tested on: S. aureus COL (MRSA); assay: microbe, parasite or virus in culture; details: for MIC S. aureus COL (MRSA): supplement CSV
Procedure, shortened: as §3

[14] = tested on: P. aeruginosa PAO1; assay: microbe, parasite or virus in culture; details: for MIC P. aeruginosa PAO1: supplement CSV
Procedure, shortened: as §3

[15] = polymyxin B resistant strain, 12.5% MHB pH 7.4, 16–20 h at 37 °C
[16] = polymyxin B resistant strain, full MHB pH 7.4, 16–20 h at 37 °C

SMILES: CC[C@@H](C)[C@@H](NC(=O)[C@@H](CCCNC(=N)N)NC(=O)[C@H](CCCNC(=N)N)NC(=O)[C@@H]1CCCN1C(=O)[C@@H]1CCCN1C(=O)[C@H](CCCNC(=N)N)NC(=O)[C@@H]1CCCN1C(=O)[C@H](CCCNC(=N)N)NC(=O)[C@@H]1CCCN1C(=O)[C@H](CC(C)C)NC(=O)[C@H](Cc1ccc(O)cc1)NC(=O)[C@@H]1CCCN1C(=O)[C@@H]1CCCN1C(=O)[C@H](CCCCN)NC(=O)[C@H](CC(=O)O)NC(=O)[C@@H](N)C(C)C)C(=O)N[C@H](Cc1ccc(O)cc1)C(=O)N[C@H](CC(N)=O)C(=O)N[C@H](CCCNC(=N)N)C(N)=O [D5Cterm-Onc] (H-VDKPPYLPRPRPPR[dR][dI][dY][dN][dR]-NH2)
- MIC P. aeruginosa PA14 4.18 (pmrB), 12.5% MHB [1, 15]: 8 µg/mL (≈ 3.35 µM)
- MIC P. aeruginosa PA14 4.18 (pmrB), full MHB [1, 16]: 64 µg/mL (≈ 26.8 µM)
- MIC P. aeruginosa PA14 4.18 ([1]; 12.5% MH pH 7.4): 8 µg/mL (≈ 3.35 µM)
- MIC P. aeruginosa PA14 4.18 ([1]; full MH pH 7.4): 64 µg/mL (≈ 26.8 µM)
- MIC P. aeruginosa PA14 4.13 (phoQ), 12.5% MHB [2, 15]: 8 µg/mL (≈ 3.35 µM)
- MIC P. aeruginosa PA14 4.13 (phoQ), full MHB [2, 16]: 64 µg/mL (≈ 26.8 µM)
- MIC P. aeruginosa PA14 4.13 ([2]; 12.5% MH pH 7.4): 8 µg/mL (≈ 3.35 µM)
- MIC P. aeruginosa PA14 4.13 ([2]; full MH pH 7.4): 64 µg/mL (≈ 26.8 µM)
- MIC K. pneumoniae OXA-48, 12.5% MHB ([3]; carbapenem-resistant, 12.5% MHB pH 7.4, 16–20 h at 37 °C): 4 µg/mL (≈ 1.67 µM)
- MIC K. pneumoniae OXA-48, full MHB ([3]; carbapenem-resistant, full MHB pH 7.4, 16–20 h at 37 °C): 32 µg/mL (≈ 13.4 µM)
- MIC K. pneumoniae OXA-48 ([3]; 12.5% MH pH 7.4): 4 µg/mL (≈ 1.67 µM)
- MIC K. pneumoniae OXA-48 ([3]; full MH pH 7.4): 32 µg/mL (≈ 13.4 µM)
- MIC P. aeruginosa PA14 2P4 (pmrB), 12.5% MHB [4, 15]: 2 µg/mL (≈ 0.837 µM)
- MIC P. aeruginosa PA14 2P4 (pmrB), full MHB [4, 16]: > 64 µg/mL
- MIC P. aeruginosa PA14 2P4 ([4]; 12.5% MH pH 7.4): 2 µg/mL (≈ 0.837 µM)
- MIC P. aeruginosa PA14 2P4 ([4]; full MH pH 7.4): >64 µg/mL
- MIC E. cloacae, 12.5% MHB ([5]; 12.5% MHB pH 7.4, 16–20 h at 37 °C): 1 µg/mL (≈ 0.418 µM)
- MIC E. cloacae, full MHB ([5]; full MHB pH 7.4, 16–20 h at 37 °C): 32 µg/mL (≈ 13.4 µM)
- MIC E. cloacae ([5]; 12.5% MH pH 7.4): 1 µg/mL (≈ 0.418 µM)
- MIC E. cloacae ([5]; full MH pH 7.4): 32 µg/mL (≈ 13.4 µM)
- MIC P. aeruginosa PA14, 12.5% MHB ([6]; 12.5% MHB pH 7.4, 16–20 h at 37 °C, two different duplicate MIC determinations): 8 µg/mL (≈ 3.35 µM)
- MIC P. aeruginosa PA14, full MHB ([6]; full MHB pH 7.4, 16–20 h at 37 °C, two different duplicate MIC determinations): > 64 µg/mL
- MIC P. aeruginosa PA14 ([6]; 12.5% MH pH 7.4): 8 µg/mL (≈ 3.35 µM)
- MIC P. aeruginosa PA14 ([6]; full MH pH 7.4): >64 µg/mL
- MIC P. aeruginosa ZEM9A, 12.5% MHB ([7]; clinical isolate, 12.5% MHB pH 7.4, 16–20 h at 37 °C): 2 µg/mL (≈ 0.837 µM)
- MIC P. aeruginosa ZEM9A, full MHB ([7]; clinical isolate, full MHB pH 7.4, 16–20 h at 37 °C): > 64 µg/mL
- MIC P. aeruginosa ZEM9A ([7]; 12.5% MH pH 7.4): 2 µg/mL (≈ 0.837 µM)
- MIC P. aeruginosa ZEM9A ([7]; full MH pH 7.4): >64 µg/mL
- MIC P. aeruginosa ZEM-1A, 12.5% MHB ([8]; clinical isolate, 12.5% MHB pH 7.4, 16–20 h at 37 °C, cells marked c: single measurement (in duplicates)): 4 to 8 µg/mL
- MIC P. aeruginosa ZEM-1A ([8]; supplement CSV, 12.5% MH pH 7.4): 4 to 8 µg/mL
- Haemolysis on hRBC, MHC ([9]; 2.5% human red blood cells (final) in 10 mM phosphate, 150 mM NaCl, pH 7.4, 25 °C, 4 h, visual inspection): >1000 µg/mL
- MHC human red blood cells ([9]; supplement CSV): >1000 µg/mL
- MIC K. pneumoniae, 12.5% MHB ([10]; K. pneumoniae NCTC 418, 12.5% Müller–Hinton medium, 16–20 h at 37 °C): 2 µg/mL (≈ 0.837 µM)
- MIC K. pneumoniae, Full MHB ([10]; K. pneumoniae NCTC 418, full Müller–Hinton medium, 16–20 h at 37 °C): 4 µg/mL (≈ 1.67 µM)
- MIC K. pneumoniae NCTC418 ([10]; 12.5% MH pH 7.4): 2 µg/mL (≈ 0.837 µM)
- MIC K. pneumoniae NCTC418 ([10]; full MH pH 7.4): 4 µg/mL (≈ 1.67 µM)
- MIC E. coli, 12.5% MHB ([11]; E. coli W3110, 12.5% Müller–Hinton medium, 16–20 h at 37 °C, broth microdilution): 2 µg/mL (≈ 0.837 µM)
- MIC E. coli, Full MHB ([11]; E. coli W3110, full Müller–Hinton medium, 16–20 h at 37 °C, broth microdilution): 4 µg/mL (≈ 1.67 µM)
- MIC E. coli W3110 ([11]; 12.5% MH pH 7.4): 2 µg/mL (≈ 0.837 µM)
- MIC E. coli W3110 ([11]; full MH pH 7.4): 4 µg/mL (≈ 1.67 µM)
- MIC A. baumannii, 12.5% MHB ([12]; A. baumannii ATCC19606, 12.5% Müller–Hinton medium, 16–20 h at 37 °C): 8 µg/mL (≈ 3.35 µM)
- MIC A. baumannii, Full MHB ([12]; A. baumannii ATCC19606, full Müller–Hinton medium, 16–20 h at 37 °C): 64 µg/mL (≈ 26.8 µM)
- MIC A. baumannii ATCC19606 ([12]; 12.5% MH pH 7.4): 8 µg/mL (≈ 3.35 µM)
- MIC A. baumannii ATCC19606 ([12]; full MH pH 7.4): 64 µg/mL (≈ 26.8 µM)
- MIC S. aureus, 12.5% MHB ([13]; S. aureus COL (MRSA), 12.5% Müller–Hinton medium, 16–20 h at 37 °C): 32 µg/mL (≈ 13.4 µM)
- MIC S. aureus, Full MHB ([13]; S. aureus COL (MRSA), full Müller–Hinton medium, 16–20 h at 37 °C): > 64 µg/mL
- MIC S. aureus COL (MRSA) ([13]; 12.5% MH pH 7.4): 32 µg/mL (≈ 13.4 µM)
- MIC S. aureus COL (MRSA) ([13]; full MH pH 7.4): >64 µg/mL
- MIC P. aeruginosa, 12.5% MHB ([14]; P. aeruginosa PAO1, 12.5% Müller–Hinton medium, 16–20 h at 37 °C): 8 µg/mL (≈ 3.35 µM)
- MIC P. aeruginosa, Full MHB ([14]; P. aeruginosa PAO1, full Müller–Hinton medium, 16–20 h at 37 °C): 64 µg/mL (≈ 26.8 µM)
- MIC P. aeruginosa PAO1 ([14]; 12.5% MH pH 7.4): 8 µg/mL (≈ 3.35 µM)
- MIC P. aeruginosa PAO1 ([14]; full MH pH 7.4): 64 µg/mL (≈ 26.8 µM)
